Measured values from PubChem BioAssay AID2060614 (Molecular Pharmacology Branch, DTP, NCI, 2025).
Where “and” joins values, the source holds several entries; their conditions need not be identical. Equal entries are not always repeated. Values belong to the compound of their own block, whether it stands above or below them.

Test system: 598228-144-R-J1-PDC complex spheroids, viability
Assay: Anticancer human tumor 598228-144-R-J1-PDC patient-derived serous endometrial adenocarcinoma cell line growth inhibition [CLK]
Settings: for viability, T/C: stronger effect = lower value
Summary of the method: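 Patient-derived tumor cells grown as complex spheroids with HUVEC endothelial cells and mesenchymal stem cells, treated with drug combinations. Concentrations descend in half-log steps from near clinical Cmax, or from 10 microM if Cmax unknown.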

[1] = curve of first compound, second compound 0.0316 µM
[2] = curve of first compound, second compound 0.1 µM
[3] = curve of first compound, second compound 0.316 µM
[4] = curve of first compound, second compound 1 µM
[5] = curve of first compound, second compound 3.16 µM
[6] = curve of first compound, second compound 10 µM
[7] = second compound 0.0316 µM, first compound 0.0316 µM
[8] = second compound 0.0316 µM, first compound 0.1 µM
[9] = second compound 0.0316 µM, first compound 0.316 µM
[10] = second compound 0.0316 µM, first compound 1 µM
[11] = second compound 0.0316 µM, first compound 3.16 µM
[12] = second compound 0.0316 µM, first compound 10 µM
[13] = second compound 0.1 µM, first compound 0.0316 µM
[14] = second compound 0.1 µM, first compound 0.1 µM
[15] = second compound 0.1 µM, first compound 0.316 µM
[16] = second compound 0.1 µM, first compound 1 µM
[17] = second compound 0.1 µM, first compound 3.16 µM
[18] = second compound 0.1 µM, first compound 10 µM
[19] = second compound 0.316 µM, first compound 0.0316 µM
[20] = second compound 0.316 µM, first compound 0.1 µM
[21] = second compound 0.316 µM, first compound 0.316 µM
[22] = second compound 0.316 µM, first compound 1 µM
[23] = second compound 0.316 µM, first compound 3.16 µM
[24] = second compound 0.316 µM, first compound 10 µM
[25] = second compound 1 µM, first compound 0.0316 µM
[26] = second compound 1 µM, first compound 0.1 µM
[27] = second compound 1 µM, first compound 0.316 µM
[28] = second compound 1 µM, first compound 1 µM
[29] = second compound 1 µM, first compound 3.16 µM
[30] = second compound 1 µM, first compound 10 µM
[31] = second compound 3.16 µM, first compound 0.0316 µM
[32] = second compound 3.16 µM, first compound 0.1 µM
[33] = second compound 3.16 µM, first compound 0.316 µM
[34] = second compound 3.16 µM, first compound 1 µM
[35] = second compound 3.16 µM, first compound 3.16 µM
[36] = second compound 3.16 µM, first compound 10 µM
[37] = second compound 10 µM, first compound 0.0316 µM
[38] = second compound 10 µM, first compound 0.1 µM
[39] = second compound 10 µM, first compound 0.316 µM
[40] = second compound 10 µM, first compound 1 µM
[41] = second compound 10 µM, first compound 3.16 µM
[42] = second compound 10 µM, first compound 10 µM
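Also: spheroids exposed to compounds for seven days before readout.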
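For viability, T/C in this document: 100% = DMSO vehicle control wells.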

Structure (SMILES): Cn1ncnc1[C@H]1c2n[nH]c(=O)c3cc(F)cc(c23)N[C@@H]1c1ccc(F)cc1 + CNC(=O)c1ccc(Nc2nc(OC3CCCC3)c3c(-c4ccc5nc(C)oc5c4)c[nH]c3n2)c(OC)c1
IC50 [1]: > 0.1 µM
IC50 [2]: > 0.1 µM
IC50 [3]: > 0.1 µM
IC50 [4]: > 0.1 µM
IC50 [5]: > 0.1 µM
IC50 [6]: > 0.1 µM
viability, T/C (second compound 0.0316 µM, first compound 0.000316 µM): 111%
viability, T/C (second compound 0.0316 µM, first compound 0.001 µM): 118%
viability, T/C (second compound 0.0316 µM, first compound 0.00316 µM): 122%
viability, T/C (second compound 0.0316 µM, first compound 0.01 µM): 121%
viability, T/C [7]: 114%
viability, T/C [8]: 108%
viability, T/C (second compound 0.1 µM, first compound 0.000316 µM): 109%
viability, T/C (second compound 0.1 µM, first compound 0.001 µM): 122%
viability, T/C (second compound 0.1 µM, first compound 0.00316 µM): 120%
viability, T/C (second compound 0.1 µM, first compound 0.01 µM): 121%
viability, T/C [13]: 112%
viability, T/C [14]: 96.8%
viability, T/C (second compound 0.316 µM, first compound 0.000316 µM): 114%
viability, T/C (second compound 0.316 µM, first compound 0.001 µM): 119%
viability, T/C (second compound 0.316 µM, first compound 0.00316 µM): 92%
viability, T/C (second compound 0.316 µM, first compound 0.01 µM): 115%
viability, T/C [19]: 118%
viability, T/C [20]: 98.1%
viability, T/C (second compound 1 µM, first compound 0.000316 µM): 112%
viability, T/C (second compound 1 µM, first compound 0.001 µM): 109%
viability, T/C (second compound 1 µM, first compound 0.00316 µM): 107%
viability, T/C (second compound 1 µM, first compound 0.01 µM): 117%
viability, T/C [25]: 117%
viability, T/C [26]: 99.3%
viability, T/C (second compound 3.16 µM, first compound 0.000316 µM): 101%
viability, T/C (second compound 3.16 µM, first compound 0.001 µM): 99.2%
viability, T/C (second compound 3.16 µM, first compound 0.00316 µM): 99.7%
viability, T/C (second compound 3.16 µM, first compound 0.01 µM): 118%
viability, T/C [31]: 104%
viability, T/C [32]: 105%
viability, T/C (second compound 10 µM, first compound 0.000316 µM): 105%
viability, T/C (second compound 10 µM, first compound 0.001 µM): 115%
viability, T/C (second compound 10 µM, first compound 0.00316 µM): 99.5%
viability, T/C (second compound 10 µM, first compound 0.01 µM): 105%
viability, T/C [37]: 82.5%
viability, T/C [38]: 128%

Structure (SMILES): COc1cccc2c1C(=O)c1c(O)c3c(c(O)c1C2=O)CC(O)(C(=O)CO)CC3OC1CC(N)C(O)C(C)O1 (centres undefined)
viability, T/C (compound 0.0316 µM): 75.6% and 69%
viability, T/C (compound 0.1 µM): 76.5% and 74%
viability, T/C (compound 0.316 µM): 43.8% and 43.9%
viability, T/C (compound 1 µM): 14% and 12.3%
viability, T/C (compound 3.16 µM): 0.38% and 0.72%
viability, T/C (compound 10 µM): 0.37% and 0.77%
IC50 (curve of compound): 0.266 µM and 0.257 µM

Structure (SMILES): CC(Nc1ccc2c(c1)OCCn1cc(N3C(=O)OCC3C(F)F)nc1-2)C(N)=O (centres undefined)
viability, T/C (compound 0.0316 µM): 82.3% and 77.2%
viability, T/C (compound 0.1 µM): 67.8% and 63.2%
viability, T/C (compound 0.316 µM): 48% and 46.3%
viability, T/C (compound 1 µM): 46.3% and 36.9%
viability, T/C (compound 3.16 µM): 33.6% and 29.7%
viability, T/C (compound 10 µM): 28.9% and 24%
IC50 (curve of compound): 0.418 µM and 0.264 µM

Structure (SMILES): CC(Nc1ccc2c(c1)OCCn1cc(N3C(=O)OCC3C(F)F)nc1-2)C(N)=O (centres undefined) + CN1CCN(c2cc(C(=O)Nc3cc4cc(-c5cnn(C)c5)ccc4cn3)ccn2)CC1
IC50 [1]: 0.885 µM
IC50 [2]: 0.271 µM
IC50 [3]: < 0.0316 µM
IC50 [4]: < 0.0316 µM
IC50 [5]: < 0.0316 µM
IC50 [6]: < 0.0316 µM
viability, T/C [7]: 97.7%
viability, T/C [8]: 66.2%
viability, T/C [9]: 67%
viability, T/C [10]: 47.1%
viability, T/C [11]: 40.3%
viability, T/C [12]: 24.4%
viability, T/C [13]: 87.9%
viability, T/C [14]: 64.3%
viability, T/C [15]: 44.9%
viability, T/C [16]: 38.6%
viability, T/C [17]: 26.5%
viability, T/C [18]: 18.3%
viability, T/C [19]: 12.3%
viability, T/C [20]: 9.13%
viability, T/C [21]: 10.7%
viability, T/C [22]: 6.85%
viability, T/C [23]: 4.58%
viability, T/C [24]: 7.75%
viability, T/C [25]: 1.13%
viability, T/C [26]: 0.87%
viability, T/C [27]: 2.39%
viability, T/C [28]: 0.6%
viability, T/C [29]: 0.73%
viability, T/C [30]: 0.42%
viability, T/C [31]: 1.56%
viability, T/C [32]: 1.01%
viability, T/C [33]: 0.62%
viability, T/C [34]: 0.69%
viability, T/C [35]: 1.66%
viability, T/C [36]: 1.62%
viability, T/C [37]: 0.62%
viability, T/C [38]: 0.46%
viability, T/C [39]: 1.49%
viability, T/C [40]: 0.44%
viability, T/C [41]: 4.05%
viability, T/C [42]: 2.58%

Further lines, with some results ahead:

IC50 [1]: 9.48 µM
IC50 [2]: > 10 µM
IC50 [3]: > 10 µM
IC50 [4]: 6.79 µM
IC50 [5]: 3.3 µM
IC50 [6]: 2.53 µM
Structure (SMILES): CC1COCCN1c1cc(C2(S(C)(=N)=O)CC2)nc(-c2ccnc3[nH]ccc23)n1 (centres undefined) + CNC(=O)c1ccc(Nc2nc(OC3CCCC3)c3c(-c4ccc5nc(C)oc5c4)c[nH]c3n2)c(OC)c1
viability, T/C [7]: 101%
viability, T/C [8]: 107%
viability, T/C [9]: 100%
viability, T/C [10]: 97.3%
viability, T/C [11]: 73.3%
viability, T/C [12]: 48.9%
viability, T/C [13]: 105%
viability, T/C [14]: 107%
viability, T/C [15]: 115%
viability, T/C [16]: 104%
viability, T/C [17]: 68.5%
viability, T/C [18]: 57.5%
viability, T/C [19]: 100%
viability, T/C [20]: 91.3%
viability, T/C [21]: 112%
viability, T/C [22]: 89%
viability, T/C [23]: 76.2%
viability, T/C [24]: 59.7%
viability, T/C [25]: 110%
viability, T/C [26]: 103%
viability, T/C [27]: 90.7%
viability, T/C [28]: 78.7%
viability, T/C [29]: 69.1%
viability, T/C [30]: 41.1%
viability, T/C [31]: 89.3%
viability, T/C [32]: 90.9%
viability, T/C [33]: 80.4%
viability, T/C [34]: 72.8%
viability, T/C [35]: 50.6%
viability, T/C [36]: 24.6%
viability, T/C [37]: 79.6%
viability, T/C [38]: 77.5%
viability, T/C [39]: 85.6%
viability, T/C [40]: 64.6%
viability, T/C [41]: 46.9%
viability, T/C [42]: 20.6%

IC50 [1]: 0.247 µM
IC50 [2]: 0.254 µM
IC50 [3]: 0.227 µM
IC50 [4]: 0.162 µM
IC50 [5]: 0.101 µM
IC50 [6]: 0.105 µM
Structure (SMILES): COc1cccc2c1C(=O)c1c(O)c3c(c(O)c1C2=O)CC(O)(C(=O)CO)CC3OC1CC(N)C(O)C(C)O1 (centres undefined) + CNC(=O)c1ccc(Nc2nc(OC3CCCC3)c3c(-c4ccc5nc(C)oc5c4)c[nH]c3n2)c(OC)c1
viability, T/C [7]: 102%
viability, T/C [8]: 83.6%
viability, T/C [9]: 40.4%
viability, T/C [10]: 11.3%
viability, T/C [11]: 0.76%
viability, T/C [12]: 0.83%
viability, T/C [13]: 122%
viability, T/C [14]: 106%
viability, T/C [15]: 36.5%
viability, T/C [16]: 7.7%
viability, T/C [17]: 0.47%
viability, T/C [18]: 1.08%
viability, T/C [19]: 123%
viability, T/C [20]: 128%
viability, T/C [21]: 19.1%
viability, T/C [22]: 4.16%
viability, T/C [23]: 0.73%
viability, T/C [24]: 4.66%
viability, T/C [25]: 121%
viability, T/C [26]: 76.1%
viability, T/C [27]: 14.2%
viability, T/C [28]: 1.56%
viability, T/C [29]: 0.81%
viability, T/C [30]: 0.82%
viability, T/C [31]: 110%
viability, T/C [32]: 49.8%
viability, T/C [33]: 17.1%
viability, T/C [34]: 1.2%
viability, T/C [35]: 2.45%
viability, T/C [36]: 1.09%
viability, T/C [37]: 103%
viability, T/C [38]: 51.7%
viability, T/C [39]: 11.6%
viability, T/C [40]: 1.39%
viability, T/C [41]: 1.63%
viability, T/C [42]: 2.68%

IC50 (curve of compound): 0.0346 µM and 0.0175 µM
Structure (SMILES): COc1c(OCCCN2CCOCC2)ccc2c3n(c(=NC(=O)c4cnc(N)nc4)nc12)CCN3
viability, T/C (compound 0.00316 µM): 80.5% and 77.9%
viability, T/C (compound 0.01 µM): 65.1% and 53.3%
viability, T/C (compound 0.0316 µM): 52.9% and 45.3%
viability, T/C (compound 0.1 µM): 34.8% and 27.9%
viability, T/C (compound 0.316 µM): 19.3% and 14.2%
viability, T/C (compound 1 µM): 8.63% and 7.29%
